This is an account of results in patent US8541584B2, “3-(1,2,3-triazol-4-yl) pyrrolo [2,3-b] pyridine derivatives” (Merck Patent GmbH, priority 2009, dated 2013).

Molecules are shown by their SMILES.

Test [1] relates to PDK1 kinase activity (P-T308-PKB) in PC3 cells. Kind of test: Cellular testing of PDK1 kinase inhibitors (Luminex assay, P-T308-PKB in PC3 cells). The class given is cell-based. The note with it: Homo sapiens, PC-3, 0.5 h, serum-free, 30 min with test substance. The procedure:
Description of the Method for Cellular Testing of PDK1 Kinase Inhibitors
The cellular assay for determination of the PDK1 kinase activity is performed as Luminex assay in the 96-well format. PC3 cells are sown at 20,000 cells per well in 100 μl of medium (45% of […]/45% of Ham's F12/10% of FCS) and incubated under serum-free conditions on the following day for 30 min with serial dilution of the test substance (7 concentrations). The cells are subsequently lysed using 90 μl of lysis buffer (20 mM Tris/HCl pH 8.0, 150 mM NaCl, 1% of NP40, 10% of glycerol, 1% of phosphatase inhibitor I, 1% of phosphatase inhibitor II, 0.1% of protease inhibitor Cocktail III, 0.01% of benzonase) per well, and the lysates are separated off from insoluble cell constituents by means of centrifugation through a 96-well filter plate (0.65 μm). The lysates are incubated overnight at 4° C. with shaking with Luminex beads to which an anti-total PKB antibody has been coupled. Detection is carried out on the following day by addition of a P-T308-PKB antibody and a species-specific PE-labelled secondary antibody. The determination of P-T308-PKB is carried out by measurement in the Luminex100 instrument by determination of 100 events per cavity in a measurement time of 60 sec. As pharmacological blank, the signals obtained from cells which have been treated with 10 μM staurosporin are subtracted from all other batches. The control value used for maximum phosphorylation of PKB on T308 are the signals from cells which have been treated only with the solvent (0.3% of DMSO). The values of the batches treated with test substance are calculated from this as percent of control, and IC50 values are determined by means of RS1.

A further test has as its target T1, IKKε (Homo sapiens, UniProt Q14164).
T1 sequence (Q14164 1-716): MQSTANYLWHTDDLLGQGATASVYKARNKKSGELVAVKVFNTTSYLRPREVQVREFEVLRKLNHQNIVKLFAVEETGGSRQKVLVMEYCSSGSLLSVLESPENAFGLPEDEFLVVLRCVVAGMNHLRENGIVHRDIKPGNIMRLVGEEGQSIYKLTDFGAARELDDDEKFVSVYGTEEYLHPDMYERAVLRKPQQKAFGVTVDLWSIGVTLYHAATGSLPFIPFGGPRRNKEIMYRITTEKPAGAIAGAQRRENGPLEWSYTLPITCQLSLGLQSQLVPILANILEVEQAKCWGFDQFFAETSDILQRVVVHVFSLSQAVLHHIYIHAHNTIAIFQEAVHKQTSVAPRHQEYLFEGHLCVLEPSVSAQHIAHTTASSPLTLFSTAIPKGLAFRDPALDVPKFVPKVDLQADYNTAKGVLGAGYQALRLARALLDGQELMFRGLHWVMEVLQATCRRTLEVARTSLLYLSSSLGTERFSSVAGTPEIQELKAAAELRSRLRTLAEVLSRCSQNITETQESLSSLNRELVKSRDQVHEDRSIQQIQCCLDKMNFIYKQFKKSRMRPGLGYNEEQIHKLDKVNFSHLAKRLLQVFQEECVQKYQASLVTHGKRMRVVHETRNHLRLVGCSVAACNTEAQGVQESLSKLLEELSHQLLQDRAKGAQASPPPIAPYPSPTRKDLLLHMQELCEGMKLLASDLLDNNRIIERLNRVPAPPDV
Description: IKKε kinase test (384-well flashplate). The format is biochemical. As to conditions: 1 nM IKKε, 10 μM ATP, 30° C., 120 min; read-out: IC50 [IKKepsilon]. The procedure:
IKKε—Kinase Test (IKKepsilon)
The kinase assay is performed as 384-well flashplate assay.
1 nM IKKε, 800 nM biotinylated IκBα(19-42) peptide (biotin-C6-C6-[…]) and 10 μM ATP (with 0.3 μCi of ^33P-ATP/well) are incubated in a total volume of 50 μl (10 mM MOPS, 10 mM magnesium acetate, 0.1 mM EGTA, 1 mM dithiothreitol, 0.02% of Brij35, 0.1% of BSA, 0.1% of BioStab, pH 7.5) with or without test substance at 30° C. for 120 min. The reaction is stopped using 25 μl of 200 mM EDTA solution, filtered off with suction after 30 min at room temperature, and the wells are washed 3 times with 100 μl of 0.9% NaCl solution. The non-specific proportion of the kinase reaction (blank) is determined using 3 μM EMD 1126352 (BX-795). Radioactivity is measured in the Topcount. IC50 values are calculated using RS1.

Broadly, the IC50 is the concentration at which inhibition is half-maximal.

Consider `Cc1cccc(Cn2cc(-c3c[nH]c4ncc(-c5cnn(C)c5)cc34)nn2)c1` [Compound A7, 3-[1-(3-Methylbenzyl)-1H-1,2,3-triazol-4-yl]-5-(1-methyl-1H-pyrazol-4-yl)-1H-pyrrolo[2,3-b]pyridine], for which the IC50 lay within 1000 to 10000 nM in test [1] and 0.5 to 1000 nM at IKKε.
Taken in the same sequence, the figures for `Cn1cc(-c2cnc3[nH]cc(-c4cn(Cc5ccncc5)nn4)c3c2)cn1` [Compound A9, 5-(1-Methyl-1H-pyrazol-4-yl)-3-(1-pyridin-4-ylmethyl-1H-1,2,3-triazol-4-yl)-1H-pyrrolo-[2,3-b]pyridine] were 1000 to 10000 nM and 0.5 to 1000 nM.
On the same counts, the results for `Cn1cc(-c2cnc3[nH]cc(-c4cn(Cc5ccccc5F)nn4)c3c2)cn1` [Compound A17, 3-[1-(2-Fluorobenzyl)-1H-1,2,3-triazol-4-yl]-5-(1-methyl-1H-pyrazol-4-yl)-1H-pyrrolo-[2,3-b]pyridine] are 0.5 to 1000 nM and 0.5 to 1000 nM.
In the case of `CC(c1ccccc1C(F)(F)F)n1cc(-c2c[nH]c3ncc(-c4cnn(C)c4)cc23)nn1` (stereo not drawn) [Compound A20, 5-(1-Methyl-1H-pyrazol-4-yl)-3-{1-[1-(2-trifluoromethylphenyl)ethyl]-1H-1,2,3-triazol-4-yl}-1H-pyrrolo[2,3-b]pyridine], the IC50 in test [1] lay within 1000 to 10000 nM; on IKKε, 0.5 to 1000 nM.
Consider `Cn1cc(-c2cnc3[nH]cc(-c4cn(Cc5cccc(F)c5F)nn4)c3c2)cn1` [Compound A25, 3-[1-(2,3-Difluorobenzyl)-1H-1,2,3-triazol-4-yl]-5-(1-methyl-1H-pyrazol-4-yl)-1H-pyrrolo-[2,3-b]pyridine], for which the half-maximal inhibitory concentration (IC50) (in test [1]; on IKKε) was 0.5 to 1000 nM in each case.
Regarding `Cn1cc(-c2cnc3[nH]cc(-c4cn(Cc5ccc6ncccc6c5)nn4)c3c2)cn1` [Compound A29, 6-{4-[5-(1-Methyl-1H-pyrazol-4-yl)-1H-pyrrolo[2,3-b]pyridin-3-yl]-1,2,3-triazol-1-ylmethyl}quinoline], the 50% inhibitory concentration (IC50) (in test [1]; at IKKε) was 1000 to 10000 nM each time.
